Source: patent US20030096237A1, “Determination of the ability of patients to respond to a tumor treatment” (priority 2000, published 2003)

Tested on: CNCM I-2546
Assay: oligonucleotide array analysis of IFN-α modulated gene expression
Format: cell-based, human
Parameters: key to nAD M94880 mhc class i (hla-a*8001): normalized average difference between perfect and mismatch probeset signals
Experimental: All these cell lines were cultured in RPMI medium supplemented with 10% FCS, glutamine (2 mM), sodium pyruvate (1 mM), non-essential amino acids and HEPES buffer (10 mM) (all from GIBCO Life Sciences, Paisley, UK). When confluent, the cells were passaged by trypsinization.
Cultured melanoma cells were harvested by scraping and total cellular RNA was extracted. 10 μg from each sample were used directly as templates for cDNA synthesis using a commercial kit (Roche Molecular Biochemicals, Rotkreuz, Switzerland). The T7 promoter sequence incorporated into the cDNA synthesis primer allowed template amplification and biotin labeling by in vitro transcription using a commercial kit (Affymetrix, Santa Clara, Calif.). After alkaline heat fragmentation […] was hybridised to the array (Affymetrix, Santa Clara, Calif.) and all subsequent steps were performed following standard procedures as supplied with the arrays. Raw data were collected with a confocal laser scanner (Hewlett Packard, Palo Alto, Calif.) using GeneChip software v3.1 (Affymetrix, Santa Clara, Calif.).
Raw data were normalized based on the total chip signal obtained upon hybridisation of ME15 cell line cDNA. This array was selected because: i) the 5′/3′ intensity ratio of control genes was smaller than 3; ii)>25% of the genes are called “present” by Genechip; iii) the image appearance is homogeneous with low background and no sign of mechanical chip damage.
The normalized average difference (nAD) between the signals of the perfect and of the mismatch probesets for each gene was used as the expression level of a given gene. At least one nAD value in a pairwise comparison of data has to exceed 50 to be included. Based on nAD, change factors related to IFN-α exposure were also calculated. Negative nAD values were set to 20 in order to avoid the calculation of artificially high modifications. In order to exclude artefacts, only genes with robust change factors, greater than 2-fold, were included in the analysis. […] Genes were clustered according to their mode of regulation.
Total cellular RNA was extracted from the sensitive and resistant melanoma cell lines identified above, reverse transcribed and processed for hybridization to an oligonucleotide array (Hu6800FL, PN 900183) containing probe sets derived from 7000 full-length human genes. Expression levels for each gene were calculated as normalized average difference (nAD, see materials and methods).
Patterns of genes expressed in IFN-α sensitive and resistant melanoma cell lines were investigated upon 48 hour culture in the presence of IFN-α. CNCM I-2546 and CNCM I-2545 were studied in detail.
In Table 2 below, CNCM I-2546 and CNCM I-2545 cultured for 48 hours in the absence or in the presence of 100 U/ml IFN-α were used to assay cytokine modulated gene expression as matched with data obtained in fibrosarcoma cells. This analysis yielded six clusters of genes. […] Data are presented as average difference of signal intensity between match and mismatch probesets.
In Table 3 below, CNCM I-2546 and CNCM I-2545 cell lines cultured for 48 hours in the absence or in the presence of 100 U/ml IFN-α were used to identify novel cytokine induced genes whose expression was not found to be modulated in fibrosarcoma cells. Cluster 1 includes genes inducible in the CNCM I-2546 sensitive but not in the CNCM I-2545 resistant cell line. Cluster 2 comprises genes inducible in both lines. Data are presented as average difference of signal intensity between match and mismatch probesets.

[1] = CNCM I-2546 (+) IFN-α 100 U/ml 48 hours, (−) 0
[2] = CNCM I-2546 (+) IFN-α 100 U/ml 48 hours, (−) 24
[3] = CNCM I-2546 (+) IFN-α 100 U/ml 48 hours, (−) 43
[4] = CNCM I-2546 (+) IFN-α 100 U/ml 48 hours, (−) 55
[5] = CNCM I-2546 (+) IFN-α 100 U/ml 48 hours, (−) 77
[6] = CNCM I-2546 (+) IFN-α 100 U/ml 48 hours, (−) 107
[7] = CNCM I-2546 (+) IFN-α 100 U/ml 48 hours, (−) 110
[8] = CNCM I-2546 (+) IFN-α 100 U/ml 48 hours, (−) 150

IFN-α
nAD L37043 casein kinase i epsilon [1]: 441 | nAD L40387 thyroid receptor interactor (trip14) [1]: 85 | nAD U51127 interferon regulatory factor 5 (CNCM I-2546 (+) IFN-α 100 U/ml 48 hours, (−) 3): 116 | nAD Z56281 interferon regulatory factor 3 (CNCM I-2546 (+) IFN-α 100 U/ml 48 hours, (−) 12): 136 | nAD M98343 amplaxin (ems1) (CNCM I-2546 (+) IFN-α 100 U/ml 48 hours, (−) 15): 141 | nAD J03909 gamma-interferon-inducible protein (ip-30) (CNCM I-2546 (+) IFN-α 100 U/ml 48 hours, (−) 18): 57 | nAD D32050 alanyl-trna synthetase (CNCM I-2546 (+) IFN-α 100 U/ml 48 hours, (−) 21): 427 | nAD M60784 ul snrnp-specific protein [2]: 216 | nAD X57351 1-8d gene from interferon-inducible gene family [2]: 297 | nAD D28137 bst-2 (CNCM I-2546 (+) IFN-α 100 U/ml 48 hours, (−) 28): 305 | nAD S81914 iex-1 = radiation-inducible immediate-early gene (CNCM I-2546 (+) IFN-α 100 U/ml 48 hours, (−) 31): 312 | nAD X96401 rox protein (CNCM I-2546 (+) IFN-α 100 U/ml 48 hours, (−) 34): 143 | nAD M79462 pml-1 [3]: 1 | nAD U22970 16-jun gene, interferon-inducible peptide (6-16) [3]: 2363 | nAD L42243 ifnar2 gene (interferon receptor) (CNCM I-2546 (+) IFN-α 100 U/ml 48 hours, (−) 46): −4 | nAD U52513 rig-g (CNCM I-2546 (+) IFN-α 100 U/ml 48 hours, (−) 49): 96 | nAD K01900 lymphocyte interferon alpha type 201 [4]: 85 | nAD M19650 2′,3′-cyclic nucleotide 3prime-phosphodiesterase [4]: 269 | nAD X95325 dna binding protein a variant (CNCM I-2546 (+) IFN-α 100 U/ml 48 hours, (−) 58): 375 | nAD X15949 interferon regulatory factor-2 (irf-2) (CNCM I-2546 (+) IFN-α 100 U/ml 48 hours, (−) 67): 11 | nAD Z26491 gene catechol o-methyltransferase (CNCM I-2546 (+) IFN-α 100 U/ml 48 hours, (−) 73): 337 | nAD U69126 fuse binding protein 2 (fbp2) [5]: 302 | nAD X76538 mpv17 [5]: 313 | nAD U50327 protein kinase c substrate 80k-h gene (prkcsh) (CNCM I-2546 (+) IFN-α 100 U/ml 48 hours, (−) 80): 312 | nAD U09579 melanoma differentiation associated (mda-6) (CNCM I-2546 (+) IFN-α 100 U/ml 48 hours, (−) 83): 361 | nAD U70063 human acid ceramidase (CNCM I-2546 (+) IFN-α 100 U/ml 48 hours, (−) 86): 221 | nAD Y00264 amyloid a4 precursor (CNCM I-2546 (+) IFN-α 100 U/ml 48 hours, (−) 89): 304 | nAD L35249 vacuolar h + -atpase mr 56,000 subunit (ho57) (CNCM I-2546 (+) IFN-α 100 U/ml 48 hours, (−) 92): 227 | nAD U41515 dss1 (CNCM I-2546 (+) IFN-α 100 U/ml 48 hours, (−) 104): 51 | nAD U18018 ela enhancer binding protein (ela-f) [6]: 340 | nAD X04412 plasma gelsolin [6]: 372 | nAD D50914 EST [7]: 359 | nAD U65579 mitochondrial nadh dehydrogenase-ubiquinone [7]: 377 | nAD U72206 guanine nucleotide regulatory factor (lfp40) (CNCM I-2546 (+) IFN-α 100 U/ml 48 hours, (−) 113): 459 | nAD D78132 rheb gene, ras-related gtp binding protein gene (CNCM I-2546 (+) IFN-α 100 U/ml 48 hours, (−) 119): 307 | nAD X70848 protein phosphatase 1, catalytic subunit (CNCM I-2546 (+) IFN-α 100 U/ml 48 hours, (−) 122): 370 | nAD M31013 nonmuscle myosin heavy chain (nmhc) (CNCM I-2546 (+) IFN-α 100 U/ml 48 hours, (−) 132): 441 | nAD J00212 leukocyte interferon (ifn-alpha) (CNCM I-2546 (+) IFN-α 100 U/ml 48 hours, (−) 138): 49 | nAD U91316 acyl-coa thioester hydrolase (CNCM I-2546 (+) IFN-α 100 U/ml 48 hours, (−) 141): 706 | nAD D49824 hla-b null allele (CNCM I-2546 (+) IFN-α 100 U/ml 48 hours, (−) 144): 925 | nAD HG2917 major histocompatibility complex, class i, e (CNCM I-2546 (+) IFN-α 100 U/ml 48 hours, (−) 147): 813 | nAD D21235 hhr23a protein [8]: 582 | nAD U61263 acetolactate synthase homolog [8]: 464 | nAD M65028 heterogeneous nuclear ribonucleoprotein a/b (CNCM I-2546 (+) IFN-α 100 U/ml 48 hours, (−) 153): 326 | nAD HG658 major histocompatibility complex, class 1 c (CNCM I-2546 (+) IFN-α 100 U/ml 48 hours, (−) 156): 1692 | nAD J04182 lysosomal membrane glycoprotein-1 (lamp1) (CNCM I-2546 (+) IFN-α 100 U/ml 48 hours, (−) 168): 452 | nAD L07633 interferon-gamma (CNCM I-2546 (+) IFN-α 100 U/ml 48 hours, (−) 184): 463 | nAD U18009 chromosome 17q21 clone lf113 (CNCM I-2546 (+) IFN-α 100 U/ml 48 hours, (−) 187): 735 | nAD U47025 fetal brain glycogen phosphorylase b (CNCM I-2546 (+) IFN-α 100 U/ml 48 hours, (−) 193): 924 | nAD M94880 mhc class i (hla-a*8001) (CNCM I-2546 (+) IFN-α 100 U/ml 48 hours, (−) 202): 932 | nAD J00105 beta-2 microglobulin gene (CNCM I-2546 (+) IFN-α 100 U/ml 48 hours, (−) 248): 1453 | nAD Z47055 farnesyl pyrophosphate synthetase like (CNCM I-2546 (+) IFN-α 100 U/ml 48 hours, (−) 263): 529 | nAD U78525 human eukaryotic translation initiation factor (eif3) (CNCM I-2546 (+) IFN-α 100 U/ml 48 hours, (−) 275): 589 | nAD U65932 extracellular matrix protein 1 (ecm1) (CNCM I-2546 (+) IFN-α 100 U/ml 48 hours, (−) 300): 907 | nAD J04444 cytochrome c-1 gene (CNCM I-2546 (+) IFN-α 100 U/ml 48 hours, (−) 309): 1286 | nAD HG1612 macmarcks (CNCM I-2546 (+) IFN-α 100 U/ml 48 hours, (−) 401): 1440 | nAD X90846 mixed lineage kinase 2 (CNCM I-2546 (+) IFN-α 100 U/ml 48 hours, (−) 425): 173 | nAD M34338 spermidine synthase (CNCM I-2546 (+) IFN-α 100 U/ml 48 hours, (−) 429): 1413 | nAD L13210 mac-2 binding protein (CNCM I-2546 (+) IFN-α 100 U/ml 48 hours, (−) 444): 2016 | nAD K03515 neuroleukin (CNCM I-2546 (+) IFN-α 100 U/ml 48 hours, (−) 487): 2126 | nAD M30818 interferon-induced cellular resistance mediator protein (CNCM I-2546 (+) IFN-α 100 U/ml 48 hours, (−) 756): 155 | nAD U72882 interferon-induced leucine zipper protein (ifp35) (CNCM I-2546 (+) IFN-α 100 U/ml 48 hours, (−) −9): 502 | nAD U53830 interferon regulatory factor 7a (CNCM I-2546 (+) IFN-α 100 U/ml 48 hours, (−) −31): 237 | nAD M97935 transcription factor isgf-3 (CNCM I-2546 (+) IFN-α 100 U/ml 48 hours, (−) −37): 296 | nAD X57522 ring4 cdna (CNCM I-2546 (+) IFN-α 100 U/ml 48 hours, (−) −49): 97 | nAD X07730 prostate specific antigen (CNCM I-2546 (+) IFN-α 100 U/ml 48 hours, (−) −64): 132 | nAD U50648 interferon-inducible rna-dependent protein kinase (pkr) (CNCM I-2546 (+) IFN-α 100 U/ml 48 hours, (−) −70): 71 | nAD U01824 glutamate/aspartate transporter (CNCM I-2546 (+) IFN-α 100 U/ml 48 hours, (−) −73): 91 | nAD J04164 interferon-inducible protein 27-sep (CNCM I-2546 (+) IFN-α 100 U/ml 48 hours, (−) −89): 2066 | nAD M92642 alpha-1 type xvi collagen (col16a1) (CNCM I-2546 (+) IFN-α 100 U/ml 48 hours, (−) −147): −133 | nAD M13755 interferon-induced 17-kda/15-kda protein (CNCM I-2546 (+) IFN-α 100 U/ml 48 hours, (−) −181): 716 | nAD X67325 p27 (CNCM I-2546 (+) IFN-α 100 U/ml 48 hours, (−) −211): 410 | change factor (CF) D21235 hhr23a protein (CNCM I-2546, IFN-α 100 U/ml 48 hours): 2.88
